In patent US20110130384A1, “AMIDE COMPOUND” (TAKEDA PHARMACEUTICAL COMPANY LIMITED, priority 2008, published 2011):

Biological target: T1, human GPR52 (Homo sapiens, UniProt Q9Y2T5)
T1 construct: expressed in transfected cells; host or cells: CHO(dhfr-) cells
Assay: Increase of intracellular cAMP concentration in human GPR52-expressing CHO cell (AlphaScreen cAMP assay)
Format: cell-based
Conditions: 1 μM test compound, human GPR52-expressing CHO(dhfr-) cells, 37° C. for 30 min; intracellular cAMP with 1 μM Reference Example 124 = 100%, DMSO = 0%
Protocol: Increase of Intracellular cAMP Concentration in Human GPR52-Expressing CHO Cell
Using OptiPlate-384 (PerkinElmer Inc.), 1×10^4 human GPR52-expressing CHO(dhfr-) cells were incubated together with 1 μM of a test compound in an assay buffer (30 μL, HBSS (containing Ca^2+ and Mg^2+), 0.5% BSA, 100 μm IBMX, 100 μm Ro20-1724, 5 mM HEPES (pH 7.55)) at 37° C. for 30 min. Thereafter, according to the protocol of AlphaScreen cAMP Assay Kit (PerkinElmer Inc.), the intracellular cAMP concentration was measured by EnVision (PerkinElmer Inc.). The GPR52 agonist activity was calculated, assuming the intracellular cAMP concentration in the presence of 1 μM 3-(6-(2-(3,4-dimethoxyphenyl)ethoxy)pyridin-2-yl)-N-(2-pyrrolidin-1-ylethyl)benzamide (Reference Example 124) to be 100% and assuming the intracellular cAMP concentration when DMSO was added instead of the test compound to be 0%.

T1 sequence (Q9Y2T5 whole entry): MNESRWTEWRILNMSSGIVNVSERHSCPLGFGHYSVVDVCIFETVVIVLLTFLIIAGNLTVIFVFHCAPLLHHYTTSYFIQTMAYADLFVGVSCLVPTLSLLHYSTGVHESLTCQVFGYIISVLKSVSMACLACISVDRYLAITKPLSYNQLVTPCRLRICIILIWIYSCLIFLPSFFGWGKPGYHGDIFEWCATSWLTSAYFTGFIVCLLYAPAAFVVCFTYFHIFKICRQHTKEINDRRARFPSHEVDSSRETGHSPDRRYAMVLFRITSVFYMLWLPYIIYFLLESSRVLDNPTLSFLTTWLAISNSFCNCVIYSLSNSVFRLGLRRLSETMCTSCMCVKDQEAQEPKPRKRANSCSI

Row | SMILES | GPR52 agonist activity (%)
1 | O=C(NCCO)c1cccc(-c2ccc3c(c2)C(Oc2ccc(Cl)cc2Cl)CC3)c1 (stereo not drawn) [Example 74, 3-[3-(2,4-dichlorophenoxy)-2,3-dihydro-1H-inden-5-yl]-N-(2-hydroxyethyl)benzamide] | 76
2 | C[S+]([O-])CCNC(=O)c1cccc(-c2ccc3c(c2)C(Oc2ccc(Cl)cc2Cl)CC3)c1 (stereo not drawn) [Example 76, 3-[3-(2,4-dichlorophenoxy)-2,3-dihydro-1H-inden-5-yl]-N-[2-(methylsulfinyl)ethyl]benzamide] | 80
3 | CS(=O)(=O)CCNC(=O)c1cccc(-c2ccc3c(c2)C(Oc2ccc(Cl)cc2Cl)CC3)c1 (stereo not drawn) [Example 77, 3-[3-(2,4-dichlorophenoxy)-2,3-dihydro-1H-inden-5-yl]-N-[2-(methylsulfonyl)ethyl]benzamide] | 73
4 | O=C(Nc1nccs1)c1cccc(-c2ccc3c(c2)C(Oc2ccc(Cl)cc2Cl)CC3)c1 (stereo not drawn) [Example 82, 3-[3-(2,4-dichlorophenoxy)-2,3-dihydro-1H-inden-5-yl]-N-1,3-thiazol-2-ylbenzamide] | 67
5 | O=C(NCCO)c1cccc(-c2ccc3c(c2)C(Nc2ccc(Cl)cc2Cl)CO3)c1 (stereo not drawn) [Example 87, 3-[3-[(2,4-dichlorophenyl)amino]-2,3-dihydro-1-benzofuran-5-yl]-N-(2-hydroxyethyl)benzamide] | 59
6 | O=C(NCCO)c1cccc(-c2ccc3c(c2)C(c2ccc(Cl)cc2Cl)CCO3)c1 (stereo not drawn) [Example 90, 3-[4-(2,4-dichlorophenyl)-3,4-dihydro-2H-chromen-6-yl]-N-(2-hydroxyethyl)benzamide] | 65

Now from value to compound:

Row | GPR52 agonist activity (%) | SMILES
7 | 59 | O=C(NC1CC1)c1cccc(-c2ccc3c(c2)C(Oc2ccc(Cl)cc2Cl)CC3)c1 (stereo not drawn) [Example 78, N-cyclopropyl-3-[3-(2,4-dichlorophenoxy)-2,3-dihydro-1H-inden-5-yl]benzamide]
8 | 70 | O=C(Nc1cccnc1)c1cccc(-c2ccc3c(c2)C(Oc2ccc(Cl)cc2Cl)CC3)c1 (stereo not drawn) [Example 80, 3-[3-(2,4-dichlorophenoxy)-2,3-dihydro-1H-inden-5-yl]-N-pyridin-3-ylbenzamide]
9 | 70 | NC(=O)CNC(=O)c1cccc(-c2ccc3c(c2)C(Oc2ccc(Cl)cc2Cl)CC3)c1 (stereo not drawn) [Example 83, N-(2-amino-2-oxoethyl)-3-[3-(2,4-dichlorophenoxy)-2,3-dihydro-1H-inden-5-yl]benzamide]
